According to article PMC11058299, “Synthesis, molecular docking evaluation for LOX and COX-2 inhibition and determination of in-vivo analgesic potentials of aurone derivatives” (Heliyon, 2024):
Like-named read-outs stand apart in the source and are kept apart here.

Experiments:
[1] = test system: heat induced tail flicking latency; test: Tail immersion test; type: in vivo; settings: mice
Experimental: Group I: Control, Group II-XV: WE-1 to WE-7 (sample compounds) at dose of 10 mg/kg and 20 mg/kg and Group XVI: Standard. The control (Group I) was given normal saline. Group II-XV received 10 mg/kg and 20 mg/kg of test sample (WE-1 to WE-7).
(§1) The cut-off time was set at 25 s, and the time taken for the mice to flick their tails out of the water was recorded at 30, 60, 90, and 120-min intervals. An increase in the time of tail immersion was compared to the control group to determine the analgesic effect of the tested drugs. The percentage of inhibition was calculated at the time interval showing the highest effect.

[2] = test system: opioid receptors (tail flicking latency); test: Assessment of opioid mechanism via tail immersion test with Naloxone; type: in vivo; settings: mice; for Latency response 30 min: control 3.14 ± 0.31; for Latency response 60 min: control 3.17 ± 0.41; for Latency response 120 min: control 3.20 ± 0.29; for Latency response 90 min: control 3.31 ± 0.44
Experimental: as §1
To verify the involvement of the opioid mechanism, following the approach outlined in the published study. […] These derivatives were assessed for their potential opioid activity within the control, sample compounds and standard groups using the tail immersion test.

[3] = target: T1, COX-2 enzyme (Homo sapiens, UniProt P35354); test: COX-2 inhibitory assay; type: biochemical
T1 construct: purchased Sigma Aldrich
T1 sequence (P35354 18-604): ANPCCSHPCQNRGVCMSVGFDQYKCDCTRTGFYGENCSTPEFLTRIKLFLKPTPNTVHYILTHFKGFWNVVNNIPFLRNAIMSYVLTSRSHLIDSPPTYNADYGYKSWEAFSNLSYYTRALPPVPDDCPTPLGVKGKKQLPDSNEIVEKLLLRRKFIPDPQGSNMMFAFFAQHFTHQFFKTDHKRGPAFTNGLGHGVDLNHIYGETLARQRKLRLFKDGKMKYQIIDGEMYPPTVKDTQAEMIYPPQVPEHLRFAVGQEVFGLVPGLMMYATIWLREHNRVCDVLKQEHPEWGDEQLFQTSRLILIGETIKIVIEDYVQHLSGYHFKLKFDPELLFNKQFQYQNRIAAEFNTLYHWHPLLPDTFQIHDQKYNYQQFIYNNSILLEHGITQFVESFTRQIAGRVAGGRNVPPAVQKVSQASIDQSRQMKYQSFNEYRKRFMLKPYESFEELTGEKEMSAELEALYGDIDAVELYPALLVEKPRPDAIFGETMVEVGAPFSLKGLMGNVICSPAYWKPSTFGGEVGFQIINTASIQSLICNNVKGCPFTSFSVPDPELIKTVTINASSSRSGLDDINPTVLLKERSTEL
Experimental: COX-2 inhibition was measured spectrophotometrically at 550 nm after the formation of oxidized form of tetramethlenephenylenediamine (TMPD). This assay was conducted according to previously reported procedure. […] The reaction contained 10 μL COX-2 enzymes (100 μM in diluted in DMSO), 10 μL haem of 2.2 mM diluted in DMSO, tris buffers (pH. 8, 100 μl) and drug samples according to the above stated procedure. The reaction was started by the addition of freshly prepared TMPD and methanolic arachidonic acid (AA). Celecoxib is used as a reference drug in this assay. After 5 min of incubation at 25–28C, the absorbance was measured at 550 nm and inhibition was calculated.

[4] = target: T2, 5-LOX (Homo sapiens, UniProt P09917); test: LOX inhibitory assay; type: biochemical
T2 sequence (P09917 1-674): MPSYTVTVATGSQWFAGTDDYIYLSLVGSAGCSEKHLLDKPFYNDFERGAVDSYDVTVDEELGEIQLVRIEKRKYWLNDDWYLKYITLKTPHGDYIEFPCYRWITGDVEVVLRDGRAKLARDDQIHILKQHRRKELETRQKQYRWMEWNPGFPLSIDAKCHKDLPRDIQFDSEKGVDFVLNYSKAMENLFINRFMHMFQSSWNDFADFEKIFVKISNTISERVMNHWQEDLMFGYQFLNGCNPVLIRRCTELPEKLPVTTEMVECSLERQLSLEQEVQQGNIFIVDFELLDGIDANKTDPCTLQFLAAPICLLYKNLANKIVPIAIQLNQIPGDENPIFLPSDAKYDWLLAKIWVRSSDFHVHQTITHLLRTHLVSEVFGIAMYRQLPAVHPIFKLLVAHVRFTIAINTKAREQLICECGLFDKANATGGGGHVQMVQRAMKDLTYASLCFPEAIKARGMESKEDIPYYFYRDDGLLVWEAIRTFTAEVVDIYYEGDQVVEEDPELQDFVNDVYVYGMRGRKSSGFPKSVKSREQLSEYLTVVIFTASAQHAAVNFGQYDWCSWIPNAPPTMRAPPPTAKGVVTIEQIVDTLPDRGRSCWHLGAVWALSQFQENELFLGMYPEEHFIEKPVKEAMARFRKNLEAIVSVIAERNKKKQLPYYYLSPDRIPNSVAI
Experimental: The assay was performed according to previously reported procedure. […] Enzyme 5-LOX and DCFDA were incubated for 5 min. After the addition of the test compound, it was further incubated for 10 min. By the addition of substrate arachadonic acid and ATP, the reaction was initiated.

[5] = test system: acetic acid induced writhing; test: Acetic acid induced writhing test; type: in vivo; settings: mice
Experimental: The animals were divided into various groups I-XVI consisting of 8 experimental animals for control, sample compounds (WE-1 to WE-7) and standard. Group I: Control, Group II-XV: WE-1 to WE-7 (sample compounds) at dose of 10 mg/kg and 20 mg/kg and Group XVI: Standard. The control (Group I) was given normal saline. Group II-XV received 10 mg/kg and 20 mg/kg of test sample (WE-1 to WE-7). […] The writhing test, following a previously established method, was conducted to assess the analgesic potential of the aurone derivatives. The mice were orally administered samples compounds (WE-1 to WE-7)and standard (Diclofenac sodium 10 mg/kg) 1 h before intraperitoneal administration 10 ml/kg of 1 % acetic acid. Five minutes after the acetic acid administration, the numbers of writhing episodes were counted for 10 min, and the percentage of inhibition was subsequently calculated.

[6] = test system: formalin induced paw licking; test: Formalin induced paw licking test; type: in vivo; settings: late phase, mice
Experimental: The animals were divided into various groups I-XVI consisting of 8 experimental animals for control, sample compounds (WE-1 to WE-7) and standard. Group I: Control, Group II-XV: WE-1 to WE-7 (sample compounds) at dose of 10 mg/kg and 20 mg/kg and Group XVI: Standard. The control (Group I) was given normal saline. Group II-XV received 10 mg/kg and 20 mg/kg of test sample (WE-1 to WE-7). […] The acute peripheral and centrally mediated analgesic activity of aurone derivatives was evaluated using the formalin-induced pain method, as described. Samples compounds (WE-1 to WE-7) and a standard (Indomethacin 10 mg) were orally administered 30 min prior to 20 μl of 1 % formalin injection (prepared in 0.9 % saline) in right hind paw of the mice and immediately placed in a clear box to observe the animal's reaction. Paw licking or biting within 0–5 min indicated Phase 1, while animal reactions observed between 15 and 30 min indicated Phase 2. The number of paw licking or biting events was compared to the control group, and the percentage of inhibition was calculated.

[7] = Table 2, read-out: LOX (IC50 μM)
[8] = as repeated in Table 4, read-out: Human LOX (IC50 μM)

CN1CC[C@]23c4c5ccc(O)c4O[C@H]2[C@@H](O)C=C[C@H]3[C@H]1C5 [Morphine, reference compound]
percentage inhibition of pain, tail immersion ([1]; 2 mg/kg oral): 85.42%

COc1cccc(C2(O)CCCCC2CN(C)C)c1 (stereo not shown) [Tramadol, reference compound]
Latency response 30 min ([2]; 10 mg/kg + Naloxone 2 mg/kg): 3.53 ± 0.44
Latency response 60 min ([2]; 10 mg/kg + Naloxone 2 mg/kg): 4.60 ± 0.59
Latency response 120 min ([2]; 10 mg/kg + Naloxone 2 mg/kg): 3.48 ± 0.44
Latency response 90 min ([2]; 10 mg/kg + Naloxone 2 mg/kg): 3.70 ± 0.48
tail flicking latency ([1]; 10 mg/kg, after 90 min, without Naloxone): 17.74 ± 1.33

O=C1C(=Cc2ccccc2)Oc2ccccc21 [WE-1]
IC50 ([3]; Table 2): 1.27 µM
IC50 ([3]; as repeated in Table 4): 1.27 µM
IC50 [4, 7]: 1.45 µM
IC50 [4, 8]: 1.45 µM

O=C1C(=Cc2ccc(Cl)cc2)Oc2ccccc21 [WE-2]
percent analgesic effect (inhibition of writhing) ([5]; 10 mg/kg oral): 63.44%
percent analgesic effect (inhibition of writhing) ([5]; 20 mg/kg oral): 64.94%
Latency response 30 min ([2]; 10 mg/kg + Naloxone 2 mg/kg): 3.61 ± 0.41
Latency response 60 min ([2]; 10 mg/kg + Naloxone 2 mg/kg): 4.11 ± 0.40
Latency response 120 min ([2]; 10 mg/kg + Naloxone 2 mg/kg): 3.19 ± 0.32
Latency response 90 min ([2]; 10 mg/kg + Naloxone 2 mg/kg): 4.03 ± 0.41
Latency response 30 min ([2]; 20 mg/kg + Naloxone 2 mg/kg): 3.70 ± 0.39
Latency response 60 min ([2]; 20 mg/kg + Naloxone 2 mg/kg): 4.30 ± 0.51
Latency response 120 min ([2]; 20 mg/kg + Naloxone 2 mg/kg): 3.80 ± 0.55
Latency response 90 min ([2]; 20 mg/kg + Naloxone 2 mg/kg): 4.59 ± 0.60
IC50 ([3]; Table 2): 0.82 µM
IC50 ([3]; as repeated in Table 4): 0.82 µM
percentage inhibition of paw licking, Phase II ([6]; 20 mg/kg oral): over 60%
IC50 [4, 7]: 0.86 µM
IC50 [4, 8]: 0.86 µM

COc1ccc(C=C2Oc3ccccc3C2=O)cc1 [WE-3]
Latency response 30 min ([2]; 10 mg/kg + Naloxone 2 mg/kg): 3.66 ± 0.41
Latency response 60 min ([2]; 10 mg/kg + Naloxone 2 mg/kg): 4.60 ± 0.49
Latency response 120 min ([2]; 10 mg/kg + Naloxone 2 mg/kg): 4.01 ± 0.61
Latency response 90 min ([2]; 10 mg/kg + Naloxone 2 mg/kg): 4.71 ± 0.66
Latency response 30 min ([2]; 20 mg/kg + Naloxone 2 mg/kg): 3.35 ± 0.49
Latency response 60 min ([2]; 20 mg/kg + Naloxone 2 mg/kg): 4.76 ± 0.51
Latency response 120 min ([2]; 20 mg/kg + Naloxone 2 mg/kg): 4.15 ± 0.56
Latency response 90 min ([2]; 20 mg/kg + Naloxone 2 mg/kg): 5.14 ± 0.61
IC50 ([3]; Table 2): 0.47 µM
IC50 ([3]; as repeated in Table 4): 0.47 µM
percentage inhibition of paw licking, Phase II ([6]; 20 mg/kg oral): over 60%
percentage inhibition of pain, tail immersion ([1]; 20 mg/kg oral, at interval of highest effect): 71.36%
IC50 [4, 7]: 0.52 µM
IC50 [4, 8]: 0.52 µM

O=C(O)c1ccc(C=C2Oc3ccccc3C2=O)cc1 [WE-5]
IC50 ([3]; Table 2): 1.21 µM
IC50 ([3]; as repeated in Table 4): 1.21 µM
IC50 [4, 7]: 1.12 µM
IC50 [4, 8]: 1.12 µM

O=Cc1ccc(C=C2Oc3ccccc3C2=O)cc1 [WE-6]
IC50 ([3]; Table 2): 1.13 µM
IC50 ([3]; as repeated in Table 4): 1.13 µM
IC50 [4, 7]: 1.17 µM
IC50 [4, 8]: 1.17 µM

O=C1C(=Cc2ccc(F)cc2)Oc2ccccc21 [WE-7]
percent analgesic effect (inhibition of writhing) ([5]; 20 mg/kg oral): more than 60%
Latency response 30 min ([2]; 10 mg/kg + Naloxone 2 mg/kg): 3.48 ± 0.46
Latency response 60 min ([2]; 10 mg/kg + Naloxone 2 mg/kg): 4.11 ± 0.48
Latency response 120 min ([2]; 10 mg/kg + Naloxone 2 mg/kg): 3.40 ± 0.60
Latency response 90 min ([2]; 10 mg/kg + Naloxone 2 mg/kg): 4.11 ± 0.40
Latency response 30 min ([2]; 20 mg/kg + Naloxone 2 mg/kg): 3.50 ± 0.67
Latency response 60 min ([2]; 20 mg/kg + Naloxone 2 mg/kg): 4.35 ± 0.61
Latency response 120 min ([2]; 20 mg/kg + Naloxone 2 mg/kg): 3.51 ± 0.66
Latency response 90 min ([2]; 20 mg/kg + Naloxone 2 mg/kg): 5.01 ± 0.60
IC50 ([3]; Table 2): 0.63 µM
IC50 ([3]; as repeated in Table 4): 0.63 µM
percentage inhibition of paw licking, Phase II ([6]; 20 mg/kg oral): over 60%
IC50 [4, 7]: 0.74 µM
IC50 [4, 8]: 0.74 µM

O=C(O)Cc1ccccc1Nc1c(Cl)cccc1Cl [diclofenac sodium, Diclofenac Sodium, reference compound]
percent analgesic effect (inhibition of writhing) ([5]; 10 mg/kg oral): 84.90%
number of writhing ([5]; 10 mg/kg oral, mean ± SEM, control 61.22 ± 3.90): 9.24 ± 1.51

COc1ccc2c(c1)c(CC(=O)O)c(C)n2C(=O)c1ccc(Cl)cc1 [indomethacin, Indomethacin, reference compound]
percentage inhibition of paw licking, Phase II ([6]; 10 mg/kg oral): 81.85%
